{
  "source": "paper PMC2365120",
  "about": "“Antitumour Metallocenes: Effect of DMSO on the Stability of Cp2TiX2 and Implications for Anticancer Activity” (Metal-Based Drugs, 1998)",
  "origin": "cited, not measured here",
  "key": {"[1]": {"settings": "for % Cp hydrolysis: Table 3, D2O (pD ~2-3), reaction time 24 h"}, "[2]": {"system": "fluid Ehrlich ascites tumour", "settings": "for Optimum Cure Rate (%) / Optimum dose range: fluid Ehrlich ascites tumour, samples administered in 10%DMSO/saline"}, "[3]": {"settings": "samples administered in 10%DMSO/saline"}},
  "note": "Read-outs that look alike come from different tables or passages of the source.",
  "data": [
    {"smiles": "[Cl-].[Cl-].[Ti+4].c1cc[cH-]c1.c1cc[cH-]c1", "note": "[Compound 1, Titanocene dichloride, reference compound]", "values": [
      {"measurement": "% Cp hydrolysis", "setting": "[1]", "value": 0, "unit": "%"},
      {"measurement": "Time the Cp rings remain metal bound", "setting": "[1]; in water, low pH after halide hydrolysis", "value": "over 24 h"},
      {"measurement": "Optimum Cure Rate (%)", "setting": "[2]; Table 1, Cp2TiX2", "value": 100, "unit": "%"},
      {"measurement": "Optimum dose range", "setting": "[2]; Table 1, Cp2TiX2", "value": "40-60 mg/kcj"},
      {"measurement": "LD50", "setting": "[3]; Table 1, Cp2TiX2", "value": 100, "unit": "mg/kg"}
    ]},
    {"smiles": "[F][Ti+2][F].c1cc[cH-]c1.c1cc[cH-]c1", "note": "[Compound 2]", "values": [
      {"measurement": "Optimum Cure Rate (%)", "setting": "[2]; Table 1, Cp2TiX2", "value": 100, "unit": "%"},
      {"measurement": "Optimum dose range", "setting": "[2]; Table 1, Cp2TiX2", "value": 40, "unit": "mg/kcj"},
      {"measurement": "LD50", "setting": "[3]; Table 1, Cp2TiX2", "value": 60, "unit": "mg/kg"}
    ]},
    {"smiles": "[Br][Ti+2][Br].c1cc[cH-]c1.c1cc[cH-]c1", "note": "[Compound 3]", "values": [
      {"measurement": "Optimum Cure Rate (%)", "setting": "[2]; Table 1, Cp2TiX2", "value": 100, "unit": "%"},
      {"measurement": "LD50", "setting": "[3]; Table 1, Cp2TiX2", "value": 135, "unit": "mg/kg"}
    ]},
    {"smiles": "[I][Ti+2][I].c1cc[cH-]c1.c1cc[cH-]c1", "note": "[Compound 4]", "values": [
      {"measurement": "Optimum Cure Rate (%)", "setting": "[2]; Table 1, Cp2TiX2", "value": 100, "unit": "%"},
      {"measurement": "Optimum dose range", "setting": "[2]; Table 1, Cp2TiX2", "value": "60-100 mg/kcj"},
      {"measurement": "LD50", "setting": "[3]; Table 1, Cp2TiX2", "value": 145, "unit": "mg/kg"}
    ]},
    {"smiles": "S=C=[N][Ti+2][N]=C=S.c1cc[cH-]c1.c1cc[cH-]c1", "note": "[Compound 5]", "values": [
      {"measurement": "Optimum Cure Rate (%)", "setting": "[2]; Table 1, Cp2TiX2", "value": 100, "unit": "%"},
      {"measurement": "Optimum dose range", "setting": "[2]; Table 1, Cp2TiX2", "value": 80, "unit": "mg/kcj"},
      {"measurement": "LD50", "setting": "[3]; Table 1, Cp2TiX2", "value": 135, "unit": "mg/kg"}
    ]},
    {"smiles": "O=C(O)C(Cl)(Cl)Cl.O=C(O)C(Cl)(Cl)Cl.[Ti+2].c1cc[cH-]c1.c1cc[cH-]c1", "note": "[Compound 8, titanocene bis(trichloroacetate)]", "values": [
      {"measurement": "Optimum Cure Rate (%)", "setting": "[2]; Table 1, Cp2TiX2", "value": 100, "unit": "%"},
      {"measurement": "Optimum dose range", "setting": "[2]; Table 1, Cp2TiX2", "value": "100-360 mg/kcj"},
      {"measurement": "LD50", "setting": "[3]; Table 1, Cp2TiX2", "value": 440, "unit": "mg/kg"},
      {"measurement": "Aqueous solubility", "value": "poor"}
    ]},
    {"smiles": "O=C(O)/C=C\\C(=O)[O][Ti+2][O]C(=O)/C=C\\C(=O)O.c1cc[cH-]c1.c1cc[cH-]c1", "note": "[Compound 9]", "values": [
      {"measurement": "Optimum Cure Rate (%)", "setting": "[2]; Table 1, Cp2TiX2", "value": 100, "unit": "%"},
      {"measurement": "Optimum dose range", "setting": "[2]; Table 1, Cp2TiX2", "value": "60-120 mg/kcj"},
      {"measurement": "LD50", "setting": "[3]; Table 1, Cp2TiX2", "value": 170, "unit": "mg/kg"},
      {"measurement": "Aqueous solubility", "value": "increase in aqueous solubility"}
    ]},
    {"smiles": "O=[N+]([O-])c1ccc([O][Ti+2][O]c2ccc([N+](=O)[O-])cc2)cc1.c1cc[cH-]c1.c1cc[cH-]c1", "note": "[Compound 10]", "values": [
      {"measurement": "Optimum Cure Rate (%)", "setting": "[2]; Table 1, Cp2TiX2", "value": 10, "unit": "%"},
      {"measurement": "Optimum dose range", "setting": "[2]; Table 1, Cp2TiX2", "value": "180-240 mg/kcj"},
      {"measurement": "LD50", "setting": "[3]; Table 1, Cp2TiX2", "value": 260, "unit": "mg/kg"}
    ]},
    {"smiles": "Fc1c(F)c(F)c([O][Ti+2][O]c2c(F)c(F)c(F)c(F)c2F)c(F)c1F.c1cc[cH-]c1.c1cc[cH-]c1", "note": "[Compound 11]", "values": [
      {"measurement": "Optimum Cure Rate (%)", "setting": "[2]; Table 1, Cp2TiX2", "value": 100, "unit": "%"},
      {"measurement": "Optimum dose range", "setting": "[2]; Table 1, Cp2TiX2", "value": "340-360 mg/kcj"},
      {"measurement": "LD50", "setting": "[3]; Table 1, Cp2TiX2", "value": 480, "unit": "mg/kg"}
    ]},
    {"smiles": "Fc1c(F)c(F)c([S][Ti+2][S]c2c(F)c(F)c(F)c(F)c2F)c(F)c1F.c1cc[cH-]c1.c1cc[cH-]c1", "note": "[Compound 12]", "values": [
      {"measurement": "Optimum Cure Rate (%)", "setting": "[2]; Table 1, Cp2TiX2", "value": 100, "unit": "%"},
      {"measurement": "Optimum dose range", "setting": "[2]; Table 1, Cp2TiX2", "value": "120-180 mg/kcj"},
      {"measurement": "LD50", "setting": "[3]; Table 1, Cp2TiX2", "value": 260, "unit": "mg/kg"}
    ]},
    {"smiles": "[Cl-].[Cl-].[NH3+]CC(=O)[O][Ti+2][O]C(=O)C[NH3+].c1cc[cH-]c1.c1cc[cH-]c1", "note": "[Compound 13, titanocene bis(glycine)]", "values": [
      {"measurement": "% Cp hydrolysis", "setting": "[1]", "value": "< 2", "unit": "%"},
      {"measurement": "Optimum Cure Rate (%)", "setting": "[2]; Table 1, Cp2TiX2", "value": 50, "unit": "%"},
      {"measurement": "LD50", "setting": "[3]; Table 1, Cp2TiX2", "value": "> 160", "unit": "mg/kg"}
    ]},
    {"smiles": "C[C@H]([NH3+])C(=O)[O][Ti+2][O]C(=O)[C@H](C)[NH3+].[Cl-].[Cl-].c1cc[cH-]c1.c1cc[cH-]c1", "note": "[Compound 14]", "values": [
      {"measurement": "Optimum Cure Rate (%)", "setting": "[2]; Table 1, Cp2TiX2", "value": 50, "unit": "%"},
      {"measurement": "Optimum dose range", "setting": "[2]; Table 1, Cp2TiX2", "value": 160, "unit": "mg/kcj"},
      {"measurement": "LD50", "setting": "[3]; Table 1, Cp2TiX2", "value": 185, "unit": "mg/kg"},
      {"measurement": "Aqueous solubility", "value": "highly water soluble"}
    ]},
    {"smiles": "[Cl][Ti+2][O]c1ccc(Cl)c(Cl)c1Cl.c1cc[cH-]c1.c1cc[cH-]c1", "note": "[Compound 15]", "values": [
      {"measurement": "Optimum Cure Rate (%)", "setting": "[2]; Table 2, Cp2TiClX", "value": 50, "unit": "%"},
      {"measurement": "Optimum dose range", "setting": "[2]; Table 2, Cp2TiClX", "value": "60 to 140", "unit": "mg/kg"},
      {"measurement": "LD50", "setting": "[3]; Table 2, Cp2TiClX", "value": 200, "unit": "mg/kg"}
    ]},
    {"smiles": "Cc1ccccc1[S][Ti+2][Cl].c1cc[cH-]c1.c1cc[cH-]c1", "note": "[Compound 16]", "values": [
      {"measurement": "Optimum Cure Rate (%)", "setting": "[2]; Table 2, Cp2TiClX", "value": 25, "unit": "%"},
      {"measurement": "Optimum dose range", "setting": "[2]; Table 2, Cp2TiClX", "value": "30 to 60", "unit": "mg/kg"}
    ]},
    {"smiles": "Nc1ccccc1[S][Ti+2][Cl].c1cc[cH-]c1.c1cc[cH-]c1", "note": "[Compound 17]", "values": [
      {"measurement": "Optimum Cure Rate (%)", "setting": "[2]; Table 2, Cp2TiClX", "value": 13, "unit": "%"},
      {"measurement": "LD50", "setting": "[3]; Table 2, Cp2TiClX", "value": 100, "unit": "mg/kg"}
    ]},
    {"smiles": "[Cl][Ti+]([Cl])[Cl].c1cc[cH-]c1", "note": "[CpTiCI3, reference compound]", "values": [
      {"measurement": "Antitumour activity", "setting": "[2]; partially hydrolysed derivative lacking one Cp ring", "value": "reduced activity"}
    ]}
  ]
}
